Assay results: article PMC9108603, “Microbial Metabolite Inspired β‐Peptide Polymers Displaying Potent and Selective Antifungal Activity” (Advanced Science, 2022)
Values after ≈ are worked out from the molar mass of the structure shown.

Key:
[1] = system: C. albicans K1 strain; assay: Kill kinetics assay; format: cell-based, Candida albicans; settings: 2 × MFC, C. albicans K1, RPMI 1640, 30 °C, CFU on YPD agar, duplicates
Method: Kill kinetics assay. A culture of C. albicans K1 strain was collected at 2.5 × 10^3 CFU/mL or 6.0 × 10^6 CFU/mL in RPMI 1640 medium to give the working suspension. […]
solution was added to 0.5 mL of the above fungal suspension in each well of a 24-well plate to achieve 2 × MFC of polymer concentration. The fungal suspensions were incubated at 30 °C. At desired time points, each suspension was homogeneously mixed and 30 µL of each

[2] = system: C. albicans (K1 strain); assay: Killing efficiency under energy depletion; format: cell-based, Candida albicans; settings: 2 × MFC (50 μg/mL), colony count, n = 3
Method: Energy depletion analysis. For energy depletion experiments, cell suspension of C. albicans (K1 strain) at 3.0 × 10^6 CFU/mL was pretreated with RPMI containing 5 mM NaN 3 for 1 h. For antifungal efficiency assay, a fresh cell suspension pretreated or non-pretreated with NaN 3 were incubated with 50 μg/mL PDAP 20 or without an antifungal agent (as energy depletion control) for 24 h. The fresh cell suspension without antifungal agents before and after incubation with NaN 3 for 24 h were used as the controls, respectively. The suspensions were diluted and plated on YPD agar. The plates were incubated at 30 °C for 24 h and colony amounts were counted. The cell viability after incubation at 4 °C with 50 μg/mL PDAP 20 or without an antifungal agent (as positive control) was measured using the same method.
For the confocal assay, a fresh cell suspension pretreated or non-pretreated with NaN 3 was incubated with 50 μg/mL CPM-PDAP 20 for 24 h, respectively. […]
For flow cytometry experiment, a fresh cell suspension pretreated or non-pretreated with NaN 3 was incubated with 50 μg/mL CPM-PDAP 20 for 1 h and 2 h, respectively. Fungal cells were washed by PBS to remove polymers, and 5.0 × 10^4 cells were counted and anaysized. The polymer uptake was calculated by flow cytometry (Backman). Furthermore, cell suspensions were incubated with 10 μg/mL PI for 10 min for calculated PI uptake. […]

[3] = system: BALB/c mice eyes; format: in vivo, mouse; settings: 15 mg mL^−1 eye drops every 5 min for 1 h, then every 30 min for 7 h; male BALB/c, n = 3
Method: Medicine (Accreditation number of the laboratory: SHDSYY-2021-1729). The experiment
method. […] AmpB was
(2.5% DMSO in final solution).
The organs (kidney, liver, and
14th day for histological analysis and blood biochemistry analysis.
30 min during the next 7 h.
C. albicans biofilm formation on contact lenses. The contact lenses (Biomedic ®, Cooper
Then the discs were transferred to a
and incubated at rt with shaking at 100 rpm. After 6 hours of incubation, the suspension was […]

[4] = system: NIH 3T3 fibroblast cells; assay: Cytotoxicity, MTT assay; format: cell-based; settings: Mus musculus, NIH3T3, 24 h, 37 °C, 800 to 1.6 μg/mL, 50% cell viability
Method: (§1) Cytotoxicity assay. Cytotoxicity tests were performed on NIH 3T3 fibroblast cells, endothelial cells (HUVEC), macrophage (RAW264.7), liver cells (LO2), kidney cells (COS7) and enterocyte (NCM-460) using MTT assay. Cells were cultured in DMEM supplemented with 10% FBS, 5% penicillin, 2 mM L-glutamine and incubated at 37 °C in 5% CO 2. Cells were harvested and seeded onto 96-well plates at a density of 1.0 × 10^4 cells per well and incubated for 24 h. On each plate, wells containing growth medium only and cells in growth medium without any antifungal agent were used as the negative and positive control, […]
(§2) concentrations ranging from 800 to 1.6 μg/mL. Medium in each cell-containing well was replaced with 100 μL of the corresponding polymer solution, and the plates were incubated at 37 °C for 24 h. Then, the solution in each well was switched to 100 µL MTT solution (1 mg/mL) and the plate was incubated in the dark at 37 °C for 4 h. After centrifuge (to prevent the possible loss of formazan crystals) and removal of the supernatant, 100 μL DMSO was added to each well to dissolve the formed formazan under stirred for 20 min. Then 85 µL of the supernatant from each well was transferred to the corresponding well in a new plate, followed by absorbance measurement at 570 nm on a plate reader. Each antifungal agent was tested in triplicate in each assay, and the experiment was conducted at least twice on a different day. The percentage of cell viability in each test well, relative to the positive control (which defines 100%) w as calculated from [% fibroblast growth = (A polymer – Ablank)/(Acontrol – A blank) × 100]. The IC 50 value is the minimum concentration to inhibit 50% of fibroblast cell growth. All measurements were performed with three replicates.

[5] = system: enterocyte (NCM-460); assay: Cytotoxicity, MTT assay; format: cell-based; settings: Homo sapiens, NCM460, 24 h, 37 °C, 800 to 1.6 μg/mL, 50% cell viability
Method: as §1, §2

[6] = system: kidney cells (COS7); assay: Cytotoxicity, MTT assay; format: cell-based; settings: Chlorocebus aethiops, COS-7, 24 h, 37 °C, 800 to 1.6 μg/mL, 50% cell viability
Method: as §1, §2

[7] = system: liver cells (LO2); assay: Cytotoxicity, MTT assay; format: cell-based; settings: 24 h, 37 °C, 800 to 1.6 μg/mL, 50% cell viability
Method: as §1, §2

[8] = system: macrophage (RAW264.7); assay: Cytotoxicity, MTT assay; format: cell-based; settings: Mus musculus, 24 h, 37 °C, 800 to 1.6 μg/mL, 50% cell viability
Method: as §1, §2

## poly(DL‐diaminopropionic acid) [PDAP20]
[1]
  Time to completely kill the fungi (time‐kill kinetics): several hours
[2]; 5 × 10^−3 M NaN3, 3.0 × 10^6 CFU/mL, 24 h
  Fungal cells killed under energy depletion, NaN3: about 88%
[2]; at 4°C
  Fungal cells killed under energy depletion, 4°C: about 88%
[3]
  Corneal histology (H&E) after topical administration: no obvious toxicity

## C[C@@H]1[C@H](O)[C@@H](C)/C=C/C=C/C=C/C=C/C=C/C=C/C=C/[C@H](O[C@@H]2O[C@H](C)[C@@H](O)[C@H](N)[C@@H]2O)C[C@@H]2O[C@](O)(C[C@@H](O)C[C@@H](O)[C@H](O)CC[C@@H](O)C[C@@H](O)CC(=O)O[C@H]1C)C[C@H](O)[C@H]2C(=O)O [AmpB, amphotericin B]
[4]
  IC50: 1.6 µg/mL (≈ 1.73 µM)
[5]
  IC50: 40 µg/mL (≈ 43.3 µM)
[6]
  IC50: 25 µg/mL (≈ 27.1 µM)
[7]
  IC50: 77 µg/mL (≈ 83.3 µM)
[8]
  IC50: 128 µg/mL (≈ 139 µM)
